This note sets out measurements from PubChem BioAssay AID1996.

By kinetic solubility is commonly meant solubility judged after dilution from a stock solution rather than from solid.

Values after ≈ are worked out from the molar mass of the structure shown. Some results are limits rather than exact numbers.

The conditions of the data set: buffer; pH 7.4; 200.0 µM.
For the compound `O=C(O)CSc1ncnc2scc(-c3ccccc3)c12`, the kinetic solubility was above 45.4 µg/mL.

In the case of `COC(=O)[C@@H](N)CS.Cl`, the kinetic solubility was above 25.7 µg/mL.

Take `Cc1ccc2nc(COc3ccc(Cl)cc3)cc(=O)n2c1`: the kinetic solubility is 0.5 µg/mL (≈ 1.66 µM).

On to `COc1ccccc1-n1nc(C)c(-c2ccccc2)c1N`, for which the solubility (kinetic) is above 41.9 µg/mL.

`Cl.O=C(CCN1CCc2ccccc2C1)Nc1ccc(F)c(F)c1` yielded a solubility (kinetic) of 37.9 µg/mL.

On to `O=C(O)CSC(=S)N1CC2CC(C1)c1cccc(=O)n1C2` (stereo unspecified), for which the solubility (kinetic) was above 48.7 µg/mL.

In the case of `CC1CCN(CC(=O)Nc2nccs2)CC1`, the kinetic solubility is above 35.9 µg/mL.

Turning to `CC(C)(C)C(=O)CN1C(=O)NC2(CCc3ccccc32)C1=O` (stereo unspecified), the kinetic solubility is above 45.1 µg/mL.

For `O=C(Nc1nc2c(s1)CN(Cc1ccccc1)CC2)C1CCC1`, the kinetic solubility stood at 40 µg/mL (≈ 122 µM).

Regarding `CC(C)C(OC(=O)c1ccccc1)c1nccc2ccccc12` (stereo unspecified), the solubility (kinetic) was 6.9 µg/mL (≈ 22.6 µM).

Take `CCOc1ccc(-c2cn3ccccc3n2)cc1`: the solubility (kinetic) worked out at 18.1 µg/mL (≈ 76 µM). Against the preceding compound, the solubility kinetic is about 2.6-fold higher.

Compound `COC(=O)c1cc(S(=O)(=O)N(C)C2CCCCC2)c[nH]1` displayed a kinetic solubility above 45.1 µg/mL.

The compound `COCC(=O)OCC(=O)Nc1ccccc1-c1ccccc1` registered a kinetic solubility above 44.9 µg/mL.

Take `CN(C)C(=O)c1cc2cc(Br)ccc2s1`: the kinetic solubility came out at 7.4 µg/mL (≈ 26 µM).

`O=C(Nc1ccccc1C(=O)NC1CC1)c1ccccc1F` had a solubility (kinetic) of 44.6 µg/mL (≈ 150 µM).

Take `O=Cc1c(NCc2ccccc2Cl)c2ccccc2[nH]c1=O`: the kinetic solubility was 17.7 µg/mL (≈ 56.6 µM).

As for `COc1ccc(CCNC(=O)CCc2ccc(OC)cc2)cc1`, the kinetic solubility was determined as 11.4 µg/mL (≈ 36.4 µM).

With `O=C(Nc1ccc(Cl)cc1)C(Cl)C(=O)c1ccccc1` (stereo unspecified), the kinetic solubility was 11.8 µg/mL (≈ 38.3 µM).

`CN(C)CCOC(=O)CCCCCCCCC(=O)OCCN(C)C.Cl`: the solubility (kinetic) was above 62.6 µg/mL.

As for `O=C(Nc1ccccc1)NC1CCCCNC1=O` (stereo unspecified), the kinetic solubility was above 37.1 µg/mL.

Regarding `CC(NC(=O)Nc1cccc([N+](=O)[O-])c1)c1ccc2c(c1)OCO2` (stereo unspecified), the solubility (kinetic) is 2.2 µg/mL (≈ 6.68 µM).

`CS(=O)(=O)N1CCCC(C(=O)Nc2ccc(F)c(F)c2)C1` (stereo unspecified) yielded a kinetic solubility above 47.8 µg/mL.

For the compound `O=C(OCc1ccc([N+](=O)[O-])cc1)c1cc(=O)c2ccccc2o1`, the solubility (kinetic) was 5.9 µg/mL (≈ 18.1 µM).

Regarding `O=C(Cc1ccccc1[N+](=O)[O-])NCc1ccco1`, the kinetic solubility is above 39 µg/mL.

`N#C/C(=C\c1ccc(-c2ccccc2[N+](=O)[O-])o1)C(N)=O` gave a solubility (kinetic) of 2.2 µg/mL (≈ 7.77 µM).

The compound `COc1ccc(-c2csc(NC3CCCCC3)n2)c(OC)c1` returned a solubility (kinetic) of 10.3 µg/mL (≈ 32.3 µM).

For `Cc1nnc(NC(=O)CS(=O)(=O)Cc2ccccc2)s1`, the kinetic solubility was above 46.7 µg/mL.

As for `Fc1ccccc1-c1nc2ccccc2[nH]1`, the kinetic solubility is above 31.8 µg/mL.

For `Cc1cccc(/C=N/NC(=O)c2ccncc2)n1`, the solubility (kinetic) was above 36 µg/mL.

In the case of `Cc1ccc(C(=O)NCCN2CCNC2=O)cc1`, the kinetic solubility was above 37.1 µg/mL.

With `CC1CCN(S(=O)(=O)c2cnc[nH]2)CC1`, the solubility (kinetic) was above 34.4 µg/mL.

In turn, `COc1ccccc1OC(C)C(=O)N1CCC(Cc2ccccc2)CC1` (stereo unspecified) yielded a solubility (kinetic) of 50.9 µg/mL (≈ 144 µM).

In the case of `Cc1cccc(NC(=O)c2ccc3c(c2)OCCO3)c1`, the solubility (kinetic) was 35.5 µg/mL (≈ 132 µM). The solubility kinetic values of the last two compounds are within 1.5-fold of each other.

The compound `O=C1NC(=O)N(Cc2ccccc2F)C1=O` displayed a solubility (kinetic) above 33.3 µg/mL.

`O=C(NCc1ccco1)c1ccc2[nH]c(=O)c(=O)[nH]c2c1` gave a kinetic solubility above 42.8 µg/mL.

Compound `COc1ccc(CNC(=O)COC(=O)CCc2c[nH]c3ccccc23)cc1` came in with a kinetic solubility of 44.4 µg/mL (≈ 121 µM).

For `O=S(=O)(NCc1ccccn1)c1ccc(Cl)c(C(F)(F)F)c1`, the kinetic solubility was 16.5 µg/mL (≈ 47 µM).

In the case of `Cc1ccc(NC(=S)N2CCCC(c3nc4ccccc4[nH]3)C2)cc1` (stereo unspecified), the kinetic solubility worked out at 2.3 µg/mL (≈ 6.56 µM).

For `COC(=O)Cn1c2ccc(C)cc2c2nc3ccccc3nc21`, the solubility (kinetic) is below 0.2 µg/mL.

Consider `O=S(=O)(NC(=S)c1ccccc1)c1ccc(Cl)cc1`, for which the solubility (kinetic) is above 46.8 µg/mL.

The compound `CCO/C(C)=C1/SC(=S)NC1=O` displayed a kinetic solubility above 30.5 µg/mL.

In turn, `Cc1ccc(C(=O)NNC(=O)c2ccncc2)cc1[N+](=O)[O-]` yielded a kinetic solubility above 45 µg/mL.

`CC1CCC2(CC1)NC(=O)N(CC(=O)NCc1ccc3c(c1)OCO3)C2=O` (stereo unspecified): the solubility (kinetic) was found to be 6.1 µg/mL (≈ 16.3 µM).

As for `Cc1c(C(=O)OC(C)C(=O)N(C)Cc2ccccc2)oc2ccccc12` (stereo unspecified), the kinetic solubility is 18.5 µg/mL (≈ 52.6 µM).

Compound `CCOC(=O)C1CCN(CC(=O)N2CCc3ccccc32)CC1` came in with a solubility (kinetic) above 47.5 µg/mL.

Turning to `CCn1c(CNC(=O)C2CCCCC2)cc2cc(C)ccc21`, the kinetic solubility was below 0.3 µg/mL.

Compound `COc1cccc(N2CCN(C(=O)c3cc4cc(Cl)ccc4[nH]3)CC2)c1` returned a kinetic solubility of 11.8 µg/mL (≈ 31.9 µM).

Turning to `Cc1cc(C(=O)OCC(=O)NCc2ccco2)c(C)o1`, the solubility (kinetic) is above 41.6 µg/mL.

`O=C(COC(=O)c1c(F)cccc1F)Nc1ccc(N2CCCCC2)cc1` gave a solubility (kinetic) of 5.2 µg/mL (≈ 13.9 µM).

Compound `Fc1cccc(NC(=S)Nc2cccnc2)c1` gave a kinetic solubility above 37.1 µg/mL.

Regarding `CC(C)C(C(=O)NC1=NCCS1)c1ccc(Cl)cc1` (stereo unspecified), the kinetic solubility turned out to be 1.7 µg/mL (≈ 5.73 µM).

`Cn1c(N)c(C(=O)COC(=O)Cc2c(F)cccc2Cl)c(=O)n(C)c1=O` registered a solubility (kinetic) of 31.9 µg/mL (≈ 83.1 µM).

For `Cc1ccc(C(=O)OCC(=O)NC(C)C2CC3CCC2C3)cc1N` (stereo unspecified), the solubility (kinetic) is above 49.6 µg/mL.

Compound `O=S(=O)(Nc1ncccn1)c1cc(Cl)ccc1Cl` displayed a kinetic solubility above 45.6 µg/mL.

The compound `Cc1cc(C(=O)NCc2ccco2)c2ccccc2n1` displayed a kinetic solubility above 39.9 µg/mL.

Turning to `NC12CC3CC(C1)CC(CC(=O)O)(C3)C2`, the solubility (kinetic) was found to be 23.6 µg/mL (≈ 113 µM).

With `Cn1cc(CC(=O)NCc2ccc(F)cc2)c2ccccc21`, the solubility (kinetic) was above 44.5 µg/mL.

The compound `O=C(CCSCc1ccccc1F)NCc1cccnc1` had a kinetic solubility above 45.7 µg/mL.

On to `COC(=O)/C=C1\N/C(=N\c2nc(C)cc(C)n2)N(c2ccc(Cl)cc2)C1=O`, for which the solubility (kinetic) came to 57.6 µg/mL (≈ 149 µM).

As to `CC(C)N1C(=O)c2ccccc2C1C(=O)NCCc1ccccc1` (stereo unspecified), the solubility (kinetic) is 48 µg/mL (≈ 149 µM).

On to `Cc1ccsc1C(=O)NC(C)c1ccccc1` (stereo unspecified), for which the solubility (kinetic) was above 36.8 µg/mL.

For `O=S(=O)(Nc1cc(Cl)cc(Cl)c1)N1CCOCC1`, the solubility (kinetic) is above 46.7 µg/mL.

Take `S=C(NCCc1ccccc1)Nc1ccccc1N1CCOCC1`: the kinetic solubility is above 51.2 µg/mL.

Take `CC1CN(C(=O)COC(=O)c2ccccc2O)CC(C)O1` (stereo unspecified): the solubility (kinetic) came out at 40.1 µg/mL (≈ 137 µM).

Turning to `COc1ccc2[nH]c3c(c2c1)CC(C)NC3=O` (stereo unspecified), the solubility (kinetic) was determined as 33.3 µg/mL (≈ 145 µM).

Consider `Cc1cc(C)n2nc(SCC(=O)N3CCC(C)CC3)nc2n1`, for which the kinetic solubility was above 47.9 µg/mL.

For `Cc1onc(-c2ccccc2)c1C(=O)Nc1sccc1C#N`, the kinetic solubility was found to be 23.5 µg/mL (≈ 76 µM).

Turning to `N#CCSc1ccc(-c2nc3ccccc3[nH]2)cn1`, the kinetic solubility amounted to 17 µg/mL (≈ 63.8 µM).

Compound `OCC(O)C1OC(Nc2ccc(Cl)cc2)C(O)C1O` (stereo unspecified) yielded a solubility (kinetic) above 43.5 µg/mL.

On to `Cc1ccnc(SCC(=O)Nc2sccc2C#N)n1`, for which the kinetic solubility was found to be 13.2 µg/mL (≈ 45.5 µM).

Take `O=C(Cc1ccccc1)NCC(=O)OCC(=O)c1ccc(F)cc1`: the kinetic solubility was above 49.4 µg/mL.

`COc1ccc(CCNc2ncccc2C#N)cc1OC` returned a kinetic solubility above 42.5 µg/mL.

Turning to `Oc1ccc2ccccc2c1C=Nc1ccccc1`, the solubility (kinetic) is below 0.5 µg/mL.

Turning to `COc1ccc(CCC(=O)Nc2nc(C)c(C(=O)N(C)C)s2)cc1`, the solubility (kinetic) worked out at 41.3 µg/mL (≈ 119 µM).

As to `CC(C)N1C(=O)C(=O)N(CC(=O)N(C)c2ccccc2)C1=O`, the solubility (kinetic) is above 45.5 µg/mL.

The compound `Cc1cc(C(=O)N/N=C/c2cn(C)nc2C)c2ccccc2n1` gave a solubility (kinetic) above 46.1 µg/mL.
